The source of these data is ChEMBL document CHEMBL3044940, “Activities of essential oils from Asarum heterotropoides var. mandshuricum against five phytopathogens” (Crop Prot, 2010).

In brackets after ≈: the same amount, converted by molar mass. Activity calls are given as the source filed them. The rule behind the calls is not given here.

Common to all, as to format: functional, organism-based
Test [1] relates to Phytophthora cactorum. Description: Growth inhibition of Phytophthora cactorum after 48 hr.
Test [2] deals with Alternaria humicola. Briefly: Growth inhibition of Alternaria humicola after 48 hr.
Test [3] has as its system Phytophthora cactorum. Description: Induction of changes in hyphae ultrastructures in Phytophthora cactorum assessed as cell wall thickening at 0.052 ug/ml by transmission electron microscopy.
The test system of test [4] is Phytophthora cactorum. Briefly: Induction of changes in hyphae ultrastructures in Phytophthora cactorum assessed as mitochondria level changes at 0.052 ug/ml by transmission electron microscopy.
Test [5] concerns Rhizoctonia solani. Briefly: Growth inhibition of Rhizoctonia solani after 48 hr.
The test system of test [6] is Phytophthora cactorum. Briefly: Induction of changes in hyphae ultrastructures in Phytophthora cactorum assessed as endoplasmic reticulum structure changes at 0.052 ug/ml by transmission electron microscopy.
Test [7] has as its system Phytophthora cactorum. Briefly: Induction of changes in hyphae ultrastructures in Phytophthora cactorum at 0.052 ug/ml by transmission electron microscopy.
The subject of test [8] is Fusarium solani. Description: Growth inhibition of Fusarium solani after 48 hr.
Test [9] relates to Colletotrichum gloeosporioides. Briefly: Growth inhibition of Colletotrichum gloeosporioides after 48 hr.
For test [10], the system named is Phytophthora cactorum. Briefly: Induction of changes in hyphae ultrastructures in Phytophthora cactorum assessed as membranes obscuring at 0.052 ug/ml by transmission electron microscopy.
Test [11] relates to Phytophthora cactorum. Description: Induction of changes in hyphae ultrastructures in Phytophthora cactorum assessed as plasmalemma invagination at 0.052 ug/ml by transmission electron microscopy. The conditions noted are these: Plasma.

In the case of `COCC(=O)N(c1c(C)cccc1C)C(C)C(=O)OC` (configuration not stated) [METALAXYL], the IC50 in test [1] is 0.013 µg/mL (≈ 0.0465 µM).
Take `C=CCc1ccc(OC)c(OC)c1` [METHYLEUGENOL]: the IC50 was 0.144 µg/mL (≈ 0.808 µM) in [2], 0.052 µg/mL (≈ 0.292 µM) in [1], 0.279 µg/mL (≈ 1.57 µM) in [5] and 0.09 µg/mL (≈ 0.505 µM) in test [9]. The outcome in test [3], in [4], in [6], in test [7], in test [10] and in test [11] was Active. In addition, in test [8], the “growth inhibition (GI)” value was “inactive”.

As a reminder, the IC50 is the concentration needed to halve the response being measured. A higher IC50 goes with weaker potency in that assay.
